# Source: ChEMBL document CHEMBL1125116 (J Med Chem, 1990)
# Molecular target: D(2) dopamine receptor (Rattus norvegicus, UniProt P61169)
# Assay: Evaluated in vitro for the affinity towards Dopamine receptor D2 of rat striatal tissue
# D(2) dopamine receptor, sequence (P61169 whole entry): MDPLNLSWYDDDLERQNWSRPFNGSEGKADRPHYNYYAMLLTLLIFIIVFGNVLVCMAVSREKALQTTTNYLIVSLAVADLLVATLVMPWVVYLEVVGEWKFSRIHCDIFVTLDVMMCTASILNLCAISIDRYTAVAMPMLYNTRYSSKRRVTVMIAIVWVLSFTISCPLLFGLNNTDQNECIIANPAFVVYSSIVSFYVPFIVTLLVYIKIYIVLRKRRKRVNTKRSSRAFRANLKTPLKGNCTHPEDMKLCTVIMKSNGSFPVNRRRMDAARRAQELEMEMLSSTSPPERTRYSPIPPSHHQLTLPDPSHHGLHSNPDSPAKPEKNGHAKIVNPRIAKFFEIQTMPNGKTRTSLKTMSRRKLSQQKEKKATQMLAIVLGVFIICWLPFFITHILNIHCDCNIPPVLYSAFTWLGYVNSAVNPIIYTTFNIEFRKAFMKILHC
compound,measurement,value
O=C(CCCN1CCC2(CC1)C(=O)NCN2c1ccccc1)c1ccc(F)cc1I,Kd,0.25 nM
